From patent US10406162B2, “Substituted 2,3-dihydroimidazo[1,2-C]quinazoline-containing combinations” (BAYER PHARMA AKTIENGESELLSCHAFT, priority 2015, dated 2019)

What was measured:
[1] = test system: Ishikawa; assay: IC50 in endometrial cancer cell lines (untitled table); assay type: cell-based; settings: Homo sapiens, PTEN^del, PIK3R1^mut, ER+, PR+, Type I
[2] = test system: MFE-280 cells; assay: 48-hour caspase 3/7 activation assay (apoptosis induction); assay type: cell-based; settings: single agent
Description: (§1) In vitro combination assessment: The effects of combinations of the present invention were evaluated using combination index isobologram analysis for in vitro assessment. The efficacy parameters were the effects in a 48-hour caspase 3/7 activation assay. Briefly, cells were plated in 384-well plate with 25 μL medium. After 24 hours, 5 μL of experimental media containing: • either A alone, or • B alone, or • the combination of A (as component A) plus either B, (as component B), at different ratios (***) were used to make serial 3-fold dilutions to generate response curves with 7 concentrations. Experiments were conducted in triplicates. Caspase 3/7 assay was conducted at 48 hours after compound exposure.
FIG. 1: Synergistic combination of PI3K inhibitor compound A (Copanlisib) with FGFR inhibitor compound B in MFE-280 cells (PIK3CA^G1047Y, FGFR2^S252W). The combination of PI3K inhibitor compound A (copanlisib) and FGFR inhibitor compound B was tested and compared to the single agent activity in MFE 280 to address the activity in apoptosis induction using a cleaved caspase 3/7 assay. MFE 280 cells are bearing both activating PIK3CA and FGFR2 mutations.

[3] = test system: RL95-2; assay: IC50 in endometrial cancer cell lines (untitled table); assay type: cell-based; settings: Homo sapiens, PIK3R1^mut/PTEN^del/NF2/BRCA2, Type II
[4] = test system: MFE-296 cells; assay: 48-hour caspase 3/7 activation assay (apoptosis induction); assay type: cell-based; settings: single agent
Description: as §1
FIG. 2: Synergistic combination of PI3K inhibitor compound A (Copanlisib) with FGFR inhibitor compound B in MFE-296 cells (PTEN^del, FGFR2^N549K). The combination of PI3K inhibitor compound A (copanlisib) and FGFR inhibitor compound B was tested and compared to the single agent activity in MFE 296 to address the activity in apoptosis induction using a cleaved caspase 3/7 assay. MFE 296 cells are bearing activating FGFR2 mutation and loss-of-PTEN.

[5] = Phase I dose escalation study, maximum tolerated dose; settings: human, in vivo, iv; intravenously over 60 minutes on days 1, 8, 15 of every 28 day cycle
Description: (§2) In a phase I dose escalation study, subjects were treated with Compound A (copanlisib) administered intravenously over 60 minutes on days 1, 8, and 15 of every 28 day cycle. Seventeen subjects were treated in 5 dose escalation cohorts (0.1, 0.2, 0.4, 0.8, and 1.2 mg/kg), and the maximum tolerated dose (MTD) was determined to be 0.8 mg/kg. Additional patients were enrolled into the study in 3 expansion cohorts treated at the MTD to assess safety, pharmacokinetics, biomarkers, and clinical benefit in selected patient populations, including solid tumors (n=25), non-Hodgkin lymphoma (NHL; n=9), and diabetic solid tumor patients (n=6; treated at 0.4 mg/kg).

[6] = test system: HEC-1A; assay: IC50 in endometrial cancer cell lines (untitled table); assay type: cell-based; settings: Homo sapiens, PIK3CA^G1049R, PIK3R2^mut, KRAS^mut, Type II
[7] = test system: MFE 280; assay: as above; assay type: cell-based; settings: Homo sapiens, PIK3CA^G1047Y, RB^del, FGFR2^5252W, Type II
[8] = test system: ECC-1; assay: as above; assay type: cell-based; settings: Homo sapiens, PTEN^del, PIK3R1^mut, ER+, PR+, Type I
[9] = test system: MFE 280 xenograft tumor model; assay: In vivo efficacy in tumor xenograft model; design: species or system nude mice; settings: for T/C (tumor area) / T/C (tumor weight): study end
Description: (§3) The in vivo efficacy was evaluated in tumor xenograft models in nude mice with established human tumor cell lines at the MTD and sub-MTD dosages. Tumor cells were cultivated according to ATCC protocols in recommended media contained 10% FCS. Cells were harvested for transplantation in a subconfluent (70%) state. The volume of implantation was 100 μl for mice. When the tumors were approximately in size of 25-50 mm^2, the animals were randomized to treatment and control groups and treatment was started. Treatment of each animal was based on individual body weight. The optimal formulation, application route and schedule were used for each compound (see table 2). Oral administration (p.o.) was carried out via a gastric tube. The oral application volumes were 10 ml/kg and the intravenous application volumes were 10 ml/kg. Tumor area (product of the longest diameter and its perpendicular) using a caliper. The animal body weight was monitored as a measure for treatment-related toxicity. Measurement of tumor area and body weight was performed 2-3 times weekly. T/C ratios (Treatment/Control) were calculated with final tumor areas. Treatment responses were evaluated by means of the clinically-used RECIST criteria (complete response, partial response, stable disease and progressive disease) and response rates were calculated accordingly (RR=number of animals with complete and partial response).
FIGS. 3A and 3B: Synergistic combination of PI3K inhibitor compound A (Copanlisib) with FGFR inhibitor compound B in MFE-280 xenograft tumor model. The combination of PI3K inhibitor compound A (copanlisib) and FGFR inhibitor compound B was tested and compared to the single agent activity and the SoC doxorubicin in MFE 280, an endometrial tumor model bearing both activating PIK3CA and FGFR2 mutations. At a tumor size of about 40 mm^2 the subcutaneously growing MFE-280 tumors were treated intravenously with two different doses of compound A (copanlisib), 14 (filled triangles)/10 (open triangles) mg/kg, and 7 mg/kg) and in combination of compound A and compound B. The dosing schedule for compound A is depicted in FIG. 3A with triangles. […] Doxorubicin was applied intravenously 1 time every 14 days as a SoC reference.

[10] = test system: endometrial cancer; assay: Phase I study, clinical outcomes in endometrial cancer patients; assay type: in vivo, human
Description: as §2
PIK3CA, BRAF, and KRAS mutations were tested using digital PCR on archival tumor samples and cell free DNA isolated from plasma. Next generation sequencing (NGS) of a panel of tumor genes and immunohistochemistry (IHC) for PTEN protein were also performed on archival tumor samples. […] Of the 2 endometrial cancer patients with extended SD lasting more than 8 cycles, PTEN data could only be generated for 1 (patient #2117), and this tumor was also PTEN-negative by IHC (Table 4). The other endometrial cancer patient with extended SD (with 24.3% tumor shrinkage) harbored a KRAS tumor mutation (Table 4). […] Activation of PI3K pathway signaling via a number of mechanisms alone or in combination, such as PTEN loss and/or mutation, PIK3CA mutation, and/or KRAS mutation, may enrich Compound A (copanlisib) activity in this population.

[11] = test system: KLE; assay: IC50 in endometrial cancer cell lines (untitled table); assay type: cell-based; settings: Homo sapiens, FBXW7^mut, Type II
[12] = test system: HEC-1B; assay: as above; assay type: cell-based; settings: Homo sapiens, PIK3CA^mut, PIK3R2^mut, PTEN^Loss(protein) and KRAS^mut, Type II
[13] = Body weight as a measure for treatment-related toxicity in MFE-280 xenograft study; settings: mouse, in vivo, 7 mg/kg
Description: as §3, with “response). […]” for “response).”

[14] = test system: MFE 296; assay: IC50 in endometrial cancer cell lines (untitled table); assay type: cell-based; settings: Homo sapiens, PTEN^del, FGFR2^N549K, UTX^del, Type II
[15] = test system: RUCA; assay: as above; assay type: cell-based; settings: PTEN^del, ER+, Type I
[16] = test system: AN3CA; assay: as above; assay type: cell-based; settings: Homo sapiens, AN3-CA, PTEN^del, FBXW7, FGFR2^N549K, K310R, Type II
[17] = test system: HEC-50; assay: as above; assay type: cell-based; settings: Hec50, PIK3R1^mut, KRAS^mut, Type II
[18] = Compound A (14)10 mg/kg i.v. Q2D
[19] = Pt 2004, 0.4 mg/kg (40 mg), stage IV
[20] = Pt 2116, 0.8 mg/kg (59 mg), stage IV
[21] = Pt 2117, 0.8 mg/kg (51 mg), stage IIIC
[22] = Doxorubicin Q14D (SoC reference)

## COc1c(OCCCN2CCOCC2)ccc2c1N=C(NC(=O)c1cnc(N)nc1)N1CCN=C21 [Compound A, 2-amino-N-[7-methoxy-8-(3-morpholin-4-ylpropoxy)-2,3-dihydroimidazo[1,2-c]quinazolin-5-yl]pyrimidine-5-carboxamide]
[1]
  IC50: 0.373 µM
[2]
  concentration up to which no apoptosis induction was shown (cleaved caspase 3/7): > 5 µM
[3]
  IC50: 0.144 µM
[4]
  concentration up to which no apoptosis induction was shown (cleaved caspase 3/7): > 5 µM
[5]
  MTD: 0.8 mg/kg
[6]
  IC50: < 0.00686 µM
[7]
  IC50: < 0.00686 µM
[8]
  IC50: 0.161 µM
[9]; Compound A 7 mg/kg i.v. Q2D
  CR (complete response): 0%
  PD (progressive disease): 25%
  PR (partial response): 25%
  RR (response rate): 25%
  T/C (tumor area): 0.40
  T/C (tumor weight): 0.24
[9]; [18]
  CR (complete response): 0%
  PD (progressive disease): 0%
  PR (partial response): 37.5%
  RR (response rate): 37.5%
  T/C (tumor area): 0.34
  T/C (tumor weight): 0.16
[9]; compound A 7 mg/kg
  reduction of tumor weight: ~76%
[9]; compound A (14)10 mg/kg
  reduction of tumor weight: approximately 84%
[10]; 4 of 5 endometrial cancer patients
  clinical benefit (patients with CR, PR or SD): 80%
[10]; [19]
  Best % change in tumor size from screening: −24.3%
  Best response: SD 8 cycles
[10]; Pt 2008, 0.8 mg/kg (40 mg), stage IV
  Best % change in tumor size from screening: 2.4%
[10]; [20]
  Best % change in tumor size from screening: −8.7%
  Best response: SD 2 cycles
[10]; [21]
  Best % change in tumor size from screening: −9.1%
  Best response: SD 8 cycles
[10]; Pt 3106, 0.8 mg/kg (46 mg, then 37 mg), stage IV
  Best % change in tumor size from screening: −61.8%
[10]; endometrial cancer patient with extended SD and KRAS tumor mutation
  tumor shrinkage: 24.3%
[11]
  IC50: < 0.00686 µM
[12]
  IC50: < 0.00686 µM
[13]
  body weight loss compared to starting body weight: No body weight loss
[14]
  IC50: < 0.00686 µM
[15]
  IC50: 0.0137 µM
[16]
  IC50: < 0.00686 µM
[17]
  IC50: 0.0646 µM

## COc1cccc2c1C(=O)c1c(O)c3c(c(O)c1C2=O)C[C@@](O)(C(=O)CO)C[C@@H]3O[C@H]1C[C@H](N)[C@H](O)[C@H](C)O1 [Doxorubicin, reference compound]
[9]; [22]
  CR (complete response): 0%
  PD (progressive disease): 37.5%
  PR (partial response): 12.5%
  RR (response rate): 12.5%
  T/C (tumor area): 0.51
  T/C (tumor weight): 0.39
[9]; SoC Doxorubicin
  tumor growth inhibition assessed by tumor weight: 61%

## COCc1c(-c2cc3cc(C)cc(OC)c3s2)c2c(N)ncnn2c1CN1CCNC(=O)C1 [Compound B, 4-{[4-Amino-6-(methoxymethyl)-5-(7-methoxy-5-methyl-1-benzothiophen-2-yl)pyrrolo[2,1-f][1,2,4]triazin-7-yl]methyl}piperazin-2-one]
[2]
  concentration up to which no apoptosis induction was shown (cleaved caspase 3/7): > 10 µM
[4]
  concentration up to which no apoptosis induction was shown (cleaved caspase 3/7): > 10 µM
[9]; Compound B 75 mg/kg p.o. QD
  CR (complete response): 12.5%
  PD (progressive disease): 12.5%
  PR (partial response): 0%
  RR (response rate): 12.5%
  T/C (tumor area): 0.39
  T/C (tumor weight): 0.22
[9]; compound B, at the end of the study
  tumor growth inhibition: 78%
